We go through four molecules from ChEMBL document CHEMBL4033691, “Discovery and structure-guided fragment-linking of 4-(2,3-dichlorobenzoyl)-1-methyl-pyrrole-2-carboxamide as a pyruvate kinase M2 activator” (Bioorg Med Chem, 2017).

Active and inactive are the calls of the source. The calls are words filed in the database; no cut-off is given here. Some results are limits rather than exact numbers.

The target in data set [1] is T1, Pyruvate kinase PKM (Homo sapiens, UniProt P14618). Put plainly: Activation of full length recombinant human N-terminal His6-tagged PKM2 expressed in Escherichia coli BL21(DE3) using PEP as substrate preincubated for 5 mins followed by substrate addition measured after 90 mins in presence of ADP by Kinase-Glo luminescence assay.
In data set [2] the target is T1, Pyruvate kinase PKM. Description: Activation of full length recombinant human N-terminal His6-tagged PKM2 expressed in Escherichia coli BL21(DE3) at 10 ug/ml using PEP as substrate preincubated for 5 mins followed by substrate addition measured after 90 mins in presence of ADP by Kinase-Glo luminescence assay relative to control.
Target sequence in this assay (P14618 2-531 limits assumed): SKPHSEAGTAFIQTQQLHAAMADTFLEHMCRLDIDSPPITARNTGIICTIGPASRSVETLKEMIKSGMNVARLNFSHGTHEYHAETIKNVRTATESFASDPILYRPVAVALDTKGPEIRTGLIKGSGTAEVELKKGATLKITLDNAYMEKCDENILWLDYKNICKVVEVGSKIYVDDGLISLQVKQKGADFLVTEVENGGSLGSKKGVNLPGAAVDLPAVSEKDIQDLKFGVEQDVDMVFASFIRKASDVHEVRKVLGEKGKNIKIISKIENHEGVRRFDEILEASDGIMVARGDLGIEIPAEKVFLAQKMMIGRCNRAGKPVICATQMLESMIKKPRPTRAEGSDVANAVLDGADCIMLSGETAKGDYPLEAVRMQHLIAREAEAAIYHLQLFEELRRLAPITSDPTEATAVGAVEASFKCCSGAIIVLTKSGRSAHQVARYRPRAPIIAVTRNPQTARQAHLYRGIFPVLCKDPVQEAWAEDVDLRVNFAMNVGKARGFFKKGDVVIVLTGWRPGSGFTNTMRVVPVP
Data set [3] deals with T1, Pyruvate kinase PKM. Put plainly: Activation of PKM2 in human A549 cells using PEP as substrate preincubated for 1 hr followed by substrate addition measured after 1 hr in presence of ADP by Kinase-Glo luminescence assay. The class given is cell-based. Background: Kinase-Glo measures the ATP left after a reaction by luminescence.
Target sequence in this assay (P14618 whole entry): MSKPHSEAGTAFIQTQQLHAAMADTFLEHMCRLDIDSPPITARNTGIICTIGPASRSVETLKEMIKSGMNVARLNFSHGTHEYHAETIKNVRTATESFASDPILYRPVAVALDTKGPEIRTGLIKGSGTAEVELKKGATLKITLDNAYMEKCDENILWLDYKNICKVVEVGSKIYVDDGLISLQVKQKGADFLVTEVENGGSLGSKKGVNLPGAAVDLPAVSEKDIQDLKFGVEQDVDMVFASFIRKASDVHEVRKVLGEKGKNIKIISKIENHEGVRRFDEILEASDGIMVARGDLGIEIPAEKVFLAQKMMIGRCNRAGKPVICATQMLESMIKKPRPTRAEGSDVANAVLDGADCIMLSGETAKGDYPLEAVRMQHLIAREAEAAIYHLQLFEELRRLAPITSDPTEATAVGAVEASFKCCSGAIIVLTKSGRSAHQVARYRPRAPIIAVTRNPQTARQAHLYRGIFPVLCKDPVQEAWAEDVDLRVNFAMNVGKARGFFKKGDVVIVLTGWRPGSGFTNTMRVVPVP
A short description of data set [4]: Stability of the compound. The class given is physicochemical.
Data set [5] deals with T1, Pyruvate kinase PKM. Description: Activation of PKM2 in human A549 cells using PEP as substrate preincubated for 1 hr followed by substrate addition measured after 1 hr in presence of ADP by Kinase-Glo luminescence assay relative to control. Type of data set: cell-based.
Target sequence in this assay (P14618 2-531 limits assumed): as the sequence (P14618 2-531 limits assumed) above
The subject of another data set is A549. Description: Growth inhibition of human A549 cells after 72 hrs in presence of serine by CellTiter-Glo luminescent assay. Type of data set: functional, cell-based. On the technique in general: Cellular ATP, detected with luciferase, serves as a proxy for viable cell number.

As usually defined, the Emax is the maximal effect, on the per cent scale that the assay sets. What is called AC50 is the concentration giving half of the maximal activity seen. Take `Cn1cc(C(=O)c2cccc(Cl)c2Cl)cc1C(N)=O`: the AC200 at Pyruvate kinase PKM [1] worked out at 26 µM. For the same molecule, the Emax on Pyruvate kinase PKM [2] stood at 198%. Also, on Pyruvate kinase PKM [3], the half-maximal activity concentration (AC50) is over 100000 nM.

As for `O=S(=O)(c1ccc2c(c1)OCCO2)N1CCN(S(=O)(=O)c2c(F)cccc2F)CC1`, on Pyruvate kinase PKM [1], the AC50 is 150 nM. The Emax at Pyruvate kinase PKM [2] is 181%.

In the case of `Cn1cc(C(=O)c2cccc(Cl)c2Cl)cc1C(=O)NCNC(=O)c1cc(C(=O)c2cccc(Cl)c2Cl)cn1C`, the Emax at Pyruvate kinase PKM [2] was determined as 194%. Moreover, the Stability entry in data set [4] is “Unstable”.

In the case of `Cn1cc(C(=O)c2cccc(Cl)c2Cl)cc1C(=O)NCCNC(=O)c1cc(C(=O)c2cccc(Cl)c2Cl)cn1C`, the Emax at Pyruvate kinase PKM [2] was 184%. For the same molecule, the AC50 at Pyruvate kinase PKM [3] was 188 nM. Also, at Pyruvate kinase PKM [5], the Activity is 598%. Moreover, the “growth inhibition (GI)” value with A549 is “inactive”.
